This is an account of results in PMC8913810, “New insights into the resistance mechanism for the BceAB-type transporter SaNsrFP” (Scientific Reports, 2022).

Experiment [1] concerns L. lactis NZ9000SaNsrFH202AP. Put plainly: Growth curve, ATP-hydrolysis deficient mutant strain. Type of experiment: cell-based, Lactococcus lactis. As to conditions: 4 µM bacitracin without ZnCl2; 0.3 nM nisin; monitored over 500 min. An excerpt:
(§1) To investigate whether SaNsrFP confers resistance against bacitracin and Zn-bacitracin, binding to the lipid carrier UPP[20],[52], we analyzed the influence of the expression of the sansrfp gene. The sensitive L. lactis strain NZ9000, served as an indicator strain for these studies which was transformed with a plasmid encoding the nsrfp gene. We included two controls where the strains were transformed with (I) an empty plasmid (L. lactis NZ9000Cm) (II) a plasmid containing a variant of the nsrfp gene (L. lactis NZ9000SaNsrFH202AP)[34]. This NZ9000SaNsrFH202AP strain is used since the transporter carries a mutation in the H-loop, a highly conserved region of ABC transporters, and as a result is not able to hydrolyze ATP[47]. […] The growth of L. lactis NZ9000Cm, L. lactis NZ9000SaNsrFP, L. lactis NZ9000SaNsrFH202AP and L. lactis NZ9000NisT was monitored online over a time period of 500 min (Fig. 2a,b). After adding the different antibiotics to the culture, the growth curve was determined. […]
(§2) To detect the growth behavior of the different strains, precultures of L. lactis NZ9000Cm, L. lactis NZ9000SaNsrFP and L. lactis NZ9000SaNsrFH202AP cells were grown in GM17 medium with 5 or 10 µg/ml chloramphenicol and 0.3 nM nisin at 30 °C overnight. […] Growth was detected at OD584 every 10 min with a FLUOstar OPTIMA (BMG Lab technology).

Experiment [2] relates to L. lactis NZ9000Cm. Description: Growth curve, empty-plasmid strain. Type of experiment: cell-based, Lactococcus lactis. As to conditions: 1 µM bacitracin + 1 mM ZnCl2 or 4 µM bacitracin without zinc; 0.3 nM nisin; monitored over 500 min, 30 °C.
Text: as §1, §2

Experiment [3] concerns L. lactis NZ9000NisT. Description: Growth curve, NisT-producing strain. Type of experiment: cell-based, Lactococcus lactis. To be noted: 1 µM bacitracin + 1 mM ZnCl2 or 4 µM bacitracin without zinc; 0.3 nM nisin; monitored over 500 min, 30 °C.
Text: as §1, §2

For experiment [4], the system named is L. lactis NZ9000NisT. To be noted: for Fold of resistance L. lactis NZ9000NisT: IC50 of NZ9000NisT relative to NZ9000Cm; for IC50: read-out: IC50 (nM) L. lactis NZ9000NisT, GM17, 5 µg/ml chloramphenicol, 0.3 nM nisin, 30 °C, 5 h, optical density.
The subject of experiment [5] is L. lactis NZ9000NsrFH202AP. As to conditions: for Fold of resistance L. lactis NZ9000NsrFH202AP: IC50 of NZ9000NsrFH202AP divided by IC50 of NZ9000Cm; for IC50: read-out: IC50 (nM) L. lactis NZ9000NsrFH202AP, GM17, 5 µg/ml chloramphenicol, 0.3 nM nisin, 30 °C, 5 h, optical density, at least 3 biological replicates with 3 technical replicates each. On the procedure: (§3) After adding the different antibiotics to the cultures of the strains L. lactis wild type (WT), L. lactis NZ9000Cm, L. lactis NZ9000SaNsrFP and L. lactis SaNsrFH202AP, the IC50 was determined.
(§4) The half maximal inhibitory concentration was determined according to Abts et al.[71]. Briefly, L. lactis NZ9000Cm, L. lactis NZ9000SaNsrFP and L. lactis NZ9000SaNsrFH202AP cells were grown in GM17 medium containing 5 µg/ml chloramphenicol and 0.3 nM nisin at 30 °C overnight. Fresh GM17Cm medium with a sublethal amount of nisin (0.3 nM) was inoculated with overnight cultures to an OD600 of 0.1. A 96-well plate was prepared with a serial dilution of examined antibiotics (concentration ranges ramoplanin 0.014 nM–3.75 µM; lysobactin 0.002 nM–10 µM; vancomycin 0.02 nM–80 µM; nisin 0.0001 nM–0.5 µM) and subsequently the cell culture was added and plates were incubated at 30 °C for 5 h. Afterwards, the optical density was measured, and the IC50 values for each strain and antibiotic were calculated.

Experiment [6] concerns L. lactis NZ9000NsrFP. To be noted: for Fold of resistance L. lactis NZ9000NsrFP: IC50 of NZ9000NsrFP divided by IC50 of NZ9000Cm; for IC50: read-out: IC50 (nM) L. lactis NZ9000NsrFP, GM17, 5 µg/ml chloramphenicol, 0.3 nM nisin, 30 °C, 5 h, optical density, at least 3 biological replicates with 3 technical replicates each. The protocol:
as §3, §4

Experiment [7] deals with L. lactis NZ9000Cm. To be noted: read-out: IC50 (nM) L. lactis NZ9000Cm; GM17, 5 µg/ml chloramphenicol, 0.3 nM nisin, 30 °C, 5 h, optical density; at least 3 biological replicates with 3 technical replicates each. The protocol: as §3, §4
In experiment [8] the test system is L. lactis NZ9000SaNsrFP. Put plainly: Cytoplasmic PGN precursor accumulation (HPLC/MS), SaNsrFP-producing strain. To be noted: bacitracin 100 µg/ml added at OD600 1.2, 30 min at 30 °C, repeated once; HPLC/MS EIC 1148.4 and 1263.4. Format: cell-based, Lactococcus lactis. The protocol: (§5) Cells were grown in M17 medium supplemented with 0.5% glucose and 0.3 nM nisin overnight at 30 °C without shaking. The next day, 100 ml with 0.5% glucose and 0.3 nM nisin was inoculated with overnight cultures to OD600 = 0.1. When OD600 = 1.2 bacitracin (100 µg/ml) was added to the cultures to enrich cell wall precursors, and the cultures were incubated for an additional 30 min at 30 °C. This step was repeated once. (As a control, a second culture each was harvested before bacitracin was added at an OD600 = 1.2, and cell pellets were stored at − 20 °C) After incubation with bacitracin, the cells were harvested, and the cell pellets were stored at − 20 °C. The next day, the cell pellets were resuspended in 25 ml water and cooked for 60 min in boiling water to break the cells. Cell debris was removed by centrifugation (15 min, 500×g, 4 °C). […]
(§6) Five microliters of each sample were injected into an XCT6330 LC/MSD ultratrap system (Agilent Technologies) equipped with a Nucleosil 100 C18 column (3 μm × 100 mm × 2 mm internal diameter, Dr. Maisch GmbH). […] Extracted ion chromatograms (EICs) in negative ion mode for UDP-MurNAc-L-Ala-D-iGlu-L-Lys-D-Ala-D-Ala (m/z^−1 1148.34 ± 0.1) and UDP-MurNAc-L-Ala-D-iGlu-L-Lys-(D-Asp)-D-Ala-D-Ala (m/z^−1 1263.37 ± 0.1) were analyzed with Data Analysis (Bruker), exported and presented with GraphPad Prism 6.0.

Experiment [9] relates to L. lactis NZ9000SaNsrFH202AP. Put plainly: Cytoplasmic PGN precursor accumulation (HPLC/MS), ATP-hydrolysis deficient mutant strain. Type of experiment: cell-based, Lactococcus lactis. As to conditions: bacitracin 100 µg/ml added at OD600 1.2, 30 min at 30 °C, repeated once; compared with NZ9000Cm. The protocol:
as §5, §6

For experiment [10], the system named is L. lactis NZ9000Cm. Put plainly: Cytoplasmic PGN precursor accumulation (HPLC/MS), empty-plasmid strain. To be noted: bacitracin 100 µg/ml added at OD600 1.2, 30 min at 30 °C, repeated once; HPLC/MS EIC 1148.4 and 1263.4. Format: cell-based, Lactococcus lactis. The protocol:
as §5, §6

The test system of experiment [11] is L. lactis NZ9000SaNsrFP. Description: Growth curve, SaNsrFP-producing strain. Type of experiment: cell-based, Lactococcus lactis. As to conditions: 1 µM bacitracin + 1 mM ZnCl2 or 4 µM bacitracin without zinc; 0.3 nM nisin; compared with untreated control strain.
Text: as §1, §2

The subject of experiment [12] is L. lactis NZ9000NsrFP. To be noted: fold changes described earlier for SaNsrFP; ref 34 (Reiners et al.); cited from earlier work. An excerpt:
No significant differences were detected between NZ9000NsrFP and NZ9000NsrFH202AP with ramoplanin. […] IC50 values decreased to similar levels in L. lactis NZ9000SaNsrFH202AP (one, two ...

Another experiment deals with SaNSRS236A. Further details: method as in earlier work. To be noted: low-level resistance; ref 32 (Khosa et al.); cited from earlier work.

Read-outs that look alike come from different tables or passages of the source. Bridge positions count the residues as written; N and C are the ends. Square brackets hold non-standard residues; d marks the D form. Peptide text beside a SMILES is read from it. * marks the point of attachment. Ileψ(thiazoline)Cys = CC[C@H](C)[C@H](N)C1=N[C@H](C(=O)*)CS1; dOrn = NCCC[C@@H](N)C(=O)O

Take `CC[C@H](C)[C@H](N)C1=N[C@H](C(=O)N[C@@H](CC(C)C)C(=O)N[C@H](CCC(=O)O)C(=O)N[C@H](C(=O)N[C@H]2CCCCNC(=O)[C@H](CC(N)=O)NC(=O)[C@@H](CC(=O)O)NC(=O)[C@H](Cc3cnc[nH]3)NC(=O)[C@@H](Cc3ccccc3)NC(=O)[C@H]([C@@H](C)CC)NC(=O)[C@@H](CCCN)NC2=O)[C@@H](C)CC)CS1` [Bacitracin, bacitracin] ({Ileψ(thiazoline)Cys}-L[dE]IK[dOrn]I[dF]H[dD]N; lactam 4-C (inferred); N-terminus assumed): the “Growth behaviour of L. lactis NZ9000SaNsrFH202AP” value in [1] is “reduced growth”. The “Growth behaviour of L. lactis NZ9000Cm” value in the experiment with L. lactis NZ9000Cm [2] is on record as “Severe growth inhibition”. In addition, the “Growth behaviour of L. lactis NZ9000NisT” value in the experiment on L. lactis NZ9000NisT [3] is recorded as “Severe growth inhibition”. Moreover, in the experiment on L. lactis NZ9000NisT [4], the “Fold of resistance L. lactis NZ9000NisT” value is listed as 1 ± 0 fold. Also, the IC50 with L. lactis NZ9000NisT [4] was 733 nM; in experiment [5], 12900 nM; in the experiment on L. lactis NZ9000NsrFP [6] it was 328000 nM; with L. lactis NZ9000Cm [7] it was 938 ± 94 nM. In experiment [5], the “Fold of resistance L. lactis NZ9000NsrFH202AP” value was 13 fold. Moreover, the “Fold of resistance L. lactis NZ9000NsrFP” value with L. lactis NZ9000NsrFP [6] is listed as 349 ± 65 fold; in the experiment with L. lactis NZ9000NsrFP [6] (listed as bacitracin) it was 350 fold. For the same compound, the “PGN precursor accumulation in the cytoplasm, L. lactis NZ9000SaNsrFP” value in the experiment on L. lactis NZ9000SaNsrFP [8] is “no accumulation of the PGN precursors”. The “PGN precursor accumulation in the cytoplasm, L. lactis NZ9000SaNsrFH202AP” value in [9] is “reduced PGN precursor accumulation”. The “PGN precursor accumulation in the cytoplasm, L. lactis NZ9000Cm” value with L. lactis NZ9000Cm [10] was “presence of the characteristic PGN precursors”. For the same compound, in the experiment with L. lactis NZ9000SaNsrFP [11], the “Growth behaviour of L. lactis NZ9000SaNsrFP” value is reported as “did not show reduced growth”.

For the compound `CN[C@H](CC(C)C)C(=O)N[C@H]1C(=O)N[C@@H](CC(N)=O)C(=O)N[C@H]2C(=O)N[C@H]3C(=O)N[C@H](C(=O)N[C@H](C(=O)O)c4cc(O)cc(O)c4-c4cc3ccc4O)[C@H](O)c3ccc(c(Cl)c3)Oc3cc2cc(c3O[C@@H]2O[C@H](CO)[C@@H](O)[C@H](O)[C@H]2O[C@H]2C[C@](C)(N)[C@H](O)[C@H](C)O2)Oc2ccc(cc2Cl)[C@H]1O` [Vancomycin, vancomycin], the “Fold of resistance L. lactis NZ9000NisT” value with L. lactis NZ9000NisT [4] was determined as 1 ± 0 fold. Also, the 50% inhibitory concentration (IC50) turned out to be 133 ± 9 nM in the experiment on L. lactis NZ9000NisT [4], 325 ± 117 nM in experiment [5], 1080 ± 264 nM in the experiment on L. lactis NZ9000NsrFP [6] and 214 nM in the experiment with L. lactis NZ9000Cm [7]. For the same compound, in experiment [5], the “Fold of resistance L. lactis NZ9000NsrFH202AP” value was determined as 2 ± 1 fold. Further, the “Fold of resistance L. lactis NZ9000NsrFP” value in the experiment on L. lactis NZ9000NsrFP [6] stood at 5 ± 1 fold.

As for gallidermin, the “Fold of resistance conferred by SaNsrFP” value in the experiment on L. lactis NZ9000NsrFP [12] is on record as 12 fold.

For the compound lysobactin, in the experiment on L. lactis NZ9000NisT [4], the “Fold of resistance L. lactis NZ9000NisT” value came out at 1 ± 0 fold and the IC50 stood at 25 ± 3 nM. In addition, in experiment [5], the “Fold of resistance L. lactis NZ9000NsrFH202AP” value was determined as 3 ± 2 fold and the IC50 turned out to be 102 ± 52.2 nM. For the same compound, in the experiment on L. lactis NZ9000NsrFP [6], the “Fold of resistance L. lactis NZ9000NsrFP” value worked out at 6 ± 1 fold and the IC50 turned out to be 182 ± 37 nM. For the same compound, in the experiment with L. lactis NZ9000Cm [7], the IC50 is 30.7 nM.

As for nisin, in the experiment on SaNSRS236A, the “Resistance against nisin, inactive protease variant SaNSRS236A” value is on record as 2.6 fold. Besides, the “Fold of resistance conferred by SaNsrFP” value in the experiment on L. lactis NZ9000NsrFP [12] was 16 fold.

As for ramoplanin A2, in the experiment on L. lactis NZ9000NisT [4], the “Fold of resistance L. lactis NZ9000NisT” value is listed as 1.3 ± 0 fold and the IC50 came to 95 nM. In addition, in [5], the “Fold of resistance L. lactis NZ9000NsrFH202AP” value was 1 ± 0 fold and the IC50 worked out at 92 ± 21 nM. Also, in the experiment on L. lactis NZ9000NsrFP [6], the “Fold of resistance L. lactis NZ9000NsrFP” value was found to be 2 ± 1 fold and the IC50 is 121 ± 34 nM. Further, the half-maximal inhibitory concentration (IC50) in the experiment with L. lactis NZ9000Cm [7] came out at 73 ± 18 nM.
